# In patent publication US20080207614A1, “QUINAZOLINE DERIVATIVES FOR THE TREATMENT AND PREVENTION OF DIABETES AND OBESITY” (SK CHEMICALS CO., LTD., priority 2004, published 2008):
# What was measured:
# C2C12 muscle cells = experiment: Analysis of glucose absorption (2-deoxyglucose) in differentiated C2C12 muscle cells; assay type: cell-based; conditions: test materials 10 μM, times relative to control group
# In short: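 Differentiated C2C12 myotubes (6 days in 1% serum) held 3 h in KRB with 5 mM glucose, then given test material at 10 μM. After 30 min, 0.2 μCi 2-deoxyglucose added for 20 min; uptake measured by radioactive counting of NaOH lysates.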
# AMPK = experiment: Measurement of AMPK activity by Western blot in C2C12 cells; assay type: cell-based; set-up: key to AMPK activity (degree of phosphorylation of serine-79 and threonine-172): fold increase in threonine-172 phosphorylation; conditions: 10 μM for 50 minutes, no superscript: Western blot of serine-79 and threonine-172 phosphorylation
# Description: C2C12 cells were cultured and differentiated in the same manner as in Experimental Example 1. Treatment with the test materials was also performed in the same manner as in Experimental Example 1 (10 μM for 50 minutes). The culture medium was removed and the cells were washed for 2 times with PBS and protein extracts were obtained using a lysis buffer (50 mM tris-HCl, pH 7.4, 1% NP-40, 0.25% sodium deoxycholate, 150 mM NaCl, 1 mM EDTA, 1 mM PMSF, 1 mM sodium o-vanadate, 1 mM NaF, 1 μg/mL apronitin, 1 μg/mL leu-peptin, 1 μg/mL pepstatin). The AMPK activity was determined from Western blot analysis of the degree of phosphorylation of serine-79 […] acetyl CoA carboxylase and the degree of phosphorylation of threonine-172. The amount of ERK (extracellular signal regulated protein kinase) was confirmed by Western blot in order to quantify the proteins.
# The result of Western blot analysis is given in Table 3 below, wherein “strong” means that the degree of phosphorylation of threonine-172 increased by 3 times or more, “mild” means that the degree of phosphorylation of threonine-172 increased by 1 to 3 times and “weak” means that the degree of phosphorylation of threonine-172 increased by less than 1 time.
Compound,Glucose absorption (C2C12 muscle cells),AMPK activity (degree of phosphorylation of serine-79 and threonine-172) (AMPK)
"FC(F)(F)c1cccc(CNc2nc(-c3ccc(Cl)cc3)nc3ccccc23)c1 [Compound 262, [2-(4-Chlorophenyl)-quinazolino-4-yl]-(3-trifluoromethylbenzyl)-amine]",1.1,–
"Clc1ccc(-c2nc(NCCc3ccccc3)c3ccccc3n2)cc1 [Compound 263, [2-(4-Chlorophenyl)-quinazolino-4-yl]-phenethylamine]",1.1,–
"Clc1ccc(-c2nc(NCCCCc3ccccc3)c3ccccc3n2)cc1 [Compound 264, [2-(4-Chlorophenyl)-quinazolino-4-yl]-(4-phenylbutyl)-amine]",1.1,–
"Clc1ccc(-c2nc(NCc3cccc4ccccc34)c3ccccc3n2)cc1 [Compound 265, [2-(4-Chlorophenyl)-quinazolino-4-yl]-naphthaleno-1-ylmethylamine]",1.1,–
"Clc1ccc(-c2nc(NCc3ccc4c(c3)OCO4)c3ccccc3n2)cc1 [Compound 266, Benzo[1,3]dioxol-5-ylmethyl-[2-(4-chlorophenyl)-quinazolino-4-yl]-amine]",1.1,–
"Fc1cccc(CNc2nc(-c3ccc(Cl)cc3)nc3ccccc23)c1 [Compound 267, [2-(4-Chlorophenyl)-quinazolino-4-yl]-(3-fluorobenzyl)-amine]",1.0,–
"Fc1cccc(CCNc2nc(-c3ccc(Cl)cc3)nc3ccccc23)c1 [Compound 268, [2-(4-Chlorophenyl)-quinazolino-4-yl]-[2-(3-fluorophenyl)-ethyl]-amine]",1.1,–
"OCCOCCNc1nc(-c2ccc(Cl)cc2)nc2ccccc12 [Compound 269, 2-{2-[2-(4-Chlorophenyl)-quinazolino-4-ylamino]-ethoxy}-ethanol]",1.2,–
"OCCNc1nc(-c2ccc(Cl)cc2)nc2ccccc12 [Compound 270, 2-[2-(4-Chlorophenyl)-quinazolino-4-ylamino]-ethanol]",1.1,–
"COc1ccccc1CNc1nc(N2CCOCC2)nc2ccccc12 [Compound 277, (2-Methoxybenzyl)-(2-morpholino-4-ylquinazolino-4-yl)-amine]",–,1.3
"COc1ccccc1CNc1nc(N2CCN(C)CC2)nc2ccccc12 [Compound 278, (2-Methoxybenzyl)-[2-(4-methylpiperazino-1-yl)-quinazolino-4-yl]-amine]",–,1.2
"COc1cccc(CNc2nc(N3CCCC3)nc3ccccc23)c1 [Compound 279, (3-Methoxybenzyl)-(2-pyrrolidino-1-ylquinazolino-4-yl)-amine]",–,1.3
"COc1cccc(CNc2nc(N3CCCCC3)nc3ccccc23)c1 [Compound 280, (3-Methoxybenzyl)-(2-piperidino-1-ylquinazolino-4-yl)-amine]",–,1.2
"COc1cccc(CNc2nc(N3CCOCC3)nc3ccccc23)c1 [Compound 281, (3-Methoxybenzyl)-(2-morpholino-4-ylquinazolino-4-yl)-amine]",–,0.9
"COc1cccc(CNc2nc(N3CCN(C)CC3)nc3ccccc23)c1 [Compound 282, (3-Methoxybenzyl)-[2-(4-methylpiperazino-1-yl)-quinazolino-4-yl]-amine]",–,0.9
"COc1ccc(CNc2nc(N3CCCCC3)nc3ccccc23)cc1 [Compound 284, (4-Methoxybenzyl)-(2-piperidino-1-ylquinazolino-4-yl)-amine]",–,1.4
"COc1ccc(CNc2nc(N3CCN(C)CC3)nc3ccccc23)cc1 [Compound 286, (4-Methoxybenzyl)-[2-(4-methylpiperazino-1-yl)-quinazolino-4-yl]-amine]",–,1.0
"COc1cccc(CNc2nc(N3CCCC3)nc3ccccc23)c1OC [Compound 287, (2,3-Dimethoxybenzyl)-(2-pyrrolidino-1-ylquinazolino-4-yl)-amine]",–,1.2
"COc1cccc(CNc2nc(N3CCOCC3)nc3ccccc23)c1OC [Compound 289, (2,3-Dimethoxybenzyl)-(2-morpholino-4-ylquinazolino-4-yl)-amine]",–,1.5
"COc1cccc(CNc2nc(N3CCN(C)CC3)nc3ccccc23)c1OC [Compound 290, (2,3-Dimethoxybenzyl)-[2-(4-methylpiperazino-1-yl)-quinazolino-4-yl]-amine]",–,1.0

Compound,Glucose absorption (C2C12 muscle cells),AMPK activity (degree of phosphorylation of serine-79 and threonine-172) (AMPK)
"COc1ccc(CNc2nc(N3CCN(C)CC3)nc3ccccc23)c(OC)c1 [Compound 294, (2,4-Dimethoxybenzyl)-[2-(4-methylpiperazino-1-yl)-quinazolino-4-yl]-amine]",–,0.4
"COc1ccc(OC)c(CNc2nc(N3CCCC3)nc3ccccc23)c1 [Compound 295, (2,5-Dimethoxybenzyl)-(2-pyrrolidino-1-ylquinazolino-4-yl)-amine]",–,0.2
"COc1ccc(OC)c(CNc2nc(N3CCOCC3)nc3ccccc23)c1 [Compound 297, (2,5-Dimethoxybenzyl)-(2-morpholino-4-ylquinazolino-4-yl)-amine]",–,0.8
"COc1cc(CNc2nc(N3CCCC3)nc3ccccc23)cc(OC)c1OC [Compound 311, (2-Pyrrolidino-1-ylquinazolino-4-yl)-(3,4,5-trimethoxybenzyl)-amine]",–,0.2
"COc1cc(CNc2nc(N3CCCCC3)nc3ccccc23)cc(OC)c1OC [Compound 312, (2-Piperidino-1-ylquinazolino-4-yl)-(3,4,5-trimethoxybenzyl)-amine]",–,0.3
"COc1cc(CNc2nc(N3CCOCC3)nc3ccccc23)cc(OC)c1OC [Compound 313, (2-Morpholino-4-ylquinazolino-4-yl)-(3,4,5-trimethoxybenzyl)-amine]",–,0.1
"COc1cc(CNc2nc(N3CCN(C)CC3)nc3ccccc23)cc(OC)c1OC [Compound 314, [2-(4-Methylpiperazino-1-yl)-quinazolino-4-yl]-(3,4,5-trimethoxybenzyl)-amine]",–,0.2
"COc1cc(OC)c(CNc2nc(N3CCCC3)nc3ccccc23)c(OC)c1 [Compound 315, (2-Pyrrolidino-1-ylquinazolino-4-yl)-(2,4,6-trimethoxybenzyl)-amine]",–,0.4
"COc1cc(OC)c(CNc2nc(N3CCCCC3)nc3ccccc23)c(OC)c1 [Compound 316, (2-Piperidino-1-ylquinazolino-4-yl)-(2,4,6-trimethoxybenzyl)-amine]",–,1.2
"COc1cc(OC)c(CNc2nc(N3CCOCC3)nc3ccccc23)c(OC)c1 [Compound 317, (2-Morpholino-4-ylquinazolino-4-yl)-(2,4,6-trimethoxybenzyl)-amine]",–,0.3
"COc1cc(OC)c(CNc2nc(N3CCN(C)CC3)nc3ccccc23)c(OC)c1 [Compound 318, [2-(4-Methylpiperazino-1-yl)-quinazolino-4-yl]-(2,4,6-trimethoxybenzyl)-amine]",–,0.5
"CCOc1nc(NCc2ccc(OC)cc2OC)c2ccccc2n1 [Compound 319, (2,4-Dimethoxybenzyl)-(2-ethoxyquinazolino-4-yl)-amine]",–,1.5
"COc1ccc(CNc2nc(Cc3ccccc3)nc3ccccc23)cc1OC [Compound 331, (2-Benzylquinazolino-4-yl)-(3,4-dimethoxybenzyl)-amine]",1.2,–
"COc1cc(CNc2nc(Cc3ccccc3)nc3ccccc23)cc(OC)c1OC [Compound 332, (2-Benzylquinazolino-4-yl)-(3,4,5-trimethoxybenzyl)-amine]",1.1,–
"COc1ccc(CNc2nc(Cc3ccccc3)nc3ccccc23)c(OC)c1 [Compound 333, (2-Benzylquinazolino-4-yl)-(2,4-dimethoxybenzyl)-amine]",1.2,–
"COc1ccc(OC)c(CNc2nc(Cc3ccccc3)nc3ccccc23)c1 [Compound 334, (2-Benzylquinazolino-4-yl)-(2,5-dimethoxybenzyl)-amine]",1.1,–
"COc1cc(OC)c(CNc2nc(Cc3ccccc3)nc3ccccc23)c(OC)c1 [Compound 335, (2-Benzylquinazolino-4-yl)-(2,4,6-trimethoxybenzyl)-amine]",1.1,–
"COc1cc(OC)c(CNc2nc(-c3ccccc3)nc3ccccc23)c(OC)c1 [Compound 337, (2-Phenylquinazolino-4-yl)-(2,4,6-trimethoxybenzyl)-amine]",1.3,–
"c1coc(-c2nc(NCc3ccc4c(c3)OCO4)c3ccccc3n2)c1 [Compound 341, Benzo[1,3]dioxol-5-ylmethyl-(2-furano-2-ylquinazolino-4-yl)-amine]",0.8,–
